Source: article PMC13335808 (Advanced Science, 2026)
pIC50: −log10 of the molar value.

Target: LRRK2 G2019S (Homo sapiens, UniProt Q5S007, G2019S)
Assay: ADP-Glo Kinase Assay, LRRK2 G2019S
Assay type: biochemical
Conditions: 120 min kinase reaction at 25 °C, 10 concentrations, read-out: IC50 (LRRK2 G2019S_ADP-Glo Assay)
Procedure: Kinase inhibition assays were performed using the ADP-Glo^TM Kinase Assay (Promega) in 384-well format. A 2× ATP/substrate solution and a 2× kinase solution was prepared in kinase reaction buffer. Compounds were dispensed into the assay plates (100 nL per well) using an Echo 655 acoustic dispenser. Subsequently, 5 μL of the 2× kinase solutions were added to each well, followed by centrifugation at 1000 rpm for 1 min and incubation at 25 °C for 10 min. The kinase reactions were initiated by the addition of 5 μL of the 2× ATP/substrate solution.
Following the kinase reaction, 5 μL of ADP-Glo reagent was added to each well. Plates were centrifuged at 1000 rpm for 1 min and incubated at 25 °C for 60 min to terminate the reaction and deplete unconsumed ATP. […] Luminescence signals were recorded using a BMG plate reader.
The percentage inhibition (inhibition%) was calculated as: […]
IC50 values were determined by nonlinear regression of the inhibition% versus the logarithm of compound concentrations using a four-parameter sigmoidal dose–response model (variable slope) in GraphPad Prism 10.0. […]
Ten different concentrations were tested for each compound. […] Residual kinase activity was determined based on luminescence readouts, and the data were normalized to vehicle (100% activity) and complete inhibition controls (0% activity). […]

Chain of LRRK2 G2019S (Q5S007 whole entry G2019S): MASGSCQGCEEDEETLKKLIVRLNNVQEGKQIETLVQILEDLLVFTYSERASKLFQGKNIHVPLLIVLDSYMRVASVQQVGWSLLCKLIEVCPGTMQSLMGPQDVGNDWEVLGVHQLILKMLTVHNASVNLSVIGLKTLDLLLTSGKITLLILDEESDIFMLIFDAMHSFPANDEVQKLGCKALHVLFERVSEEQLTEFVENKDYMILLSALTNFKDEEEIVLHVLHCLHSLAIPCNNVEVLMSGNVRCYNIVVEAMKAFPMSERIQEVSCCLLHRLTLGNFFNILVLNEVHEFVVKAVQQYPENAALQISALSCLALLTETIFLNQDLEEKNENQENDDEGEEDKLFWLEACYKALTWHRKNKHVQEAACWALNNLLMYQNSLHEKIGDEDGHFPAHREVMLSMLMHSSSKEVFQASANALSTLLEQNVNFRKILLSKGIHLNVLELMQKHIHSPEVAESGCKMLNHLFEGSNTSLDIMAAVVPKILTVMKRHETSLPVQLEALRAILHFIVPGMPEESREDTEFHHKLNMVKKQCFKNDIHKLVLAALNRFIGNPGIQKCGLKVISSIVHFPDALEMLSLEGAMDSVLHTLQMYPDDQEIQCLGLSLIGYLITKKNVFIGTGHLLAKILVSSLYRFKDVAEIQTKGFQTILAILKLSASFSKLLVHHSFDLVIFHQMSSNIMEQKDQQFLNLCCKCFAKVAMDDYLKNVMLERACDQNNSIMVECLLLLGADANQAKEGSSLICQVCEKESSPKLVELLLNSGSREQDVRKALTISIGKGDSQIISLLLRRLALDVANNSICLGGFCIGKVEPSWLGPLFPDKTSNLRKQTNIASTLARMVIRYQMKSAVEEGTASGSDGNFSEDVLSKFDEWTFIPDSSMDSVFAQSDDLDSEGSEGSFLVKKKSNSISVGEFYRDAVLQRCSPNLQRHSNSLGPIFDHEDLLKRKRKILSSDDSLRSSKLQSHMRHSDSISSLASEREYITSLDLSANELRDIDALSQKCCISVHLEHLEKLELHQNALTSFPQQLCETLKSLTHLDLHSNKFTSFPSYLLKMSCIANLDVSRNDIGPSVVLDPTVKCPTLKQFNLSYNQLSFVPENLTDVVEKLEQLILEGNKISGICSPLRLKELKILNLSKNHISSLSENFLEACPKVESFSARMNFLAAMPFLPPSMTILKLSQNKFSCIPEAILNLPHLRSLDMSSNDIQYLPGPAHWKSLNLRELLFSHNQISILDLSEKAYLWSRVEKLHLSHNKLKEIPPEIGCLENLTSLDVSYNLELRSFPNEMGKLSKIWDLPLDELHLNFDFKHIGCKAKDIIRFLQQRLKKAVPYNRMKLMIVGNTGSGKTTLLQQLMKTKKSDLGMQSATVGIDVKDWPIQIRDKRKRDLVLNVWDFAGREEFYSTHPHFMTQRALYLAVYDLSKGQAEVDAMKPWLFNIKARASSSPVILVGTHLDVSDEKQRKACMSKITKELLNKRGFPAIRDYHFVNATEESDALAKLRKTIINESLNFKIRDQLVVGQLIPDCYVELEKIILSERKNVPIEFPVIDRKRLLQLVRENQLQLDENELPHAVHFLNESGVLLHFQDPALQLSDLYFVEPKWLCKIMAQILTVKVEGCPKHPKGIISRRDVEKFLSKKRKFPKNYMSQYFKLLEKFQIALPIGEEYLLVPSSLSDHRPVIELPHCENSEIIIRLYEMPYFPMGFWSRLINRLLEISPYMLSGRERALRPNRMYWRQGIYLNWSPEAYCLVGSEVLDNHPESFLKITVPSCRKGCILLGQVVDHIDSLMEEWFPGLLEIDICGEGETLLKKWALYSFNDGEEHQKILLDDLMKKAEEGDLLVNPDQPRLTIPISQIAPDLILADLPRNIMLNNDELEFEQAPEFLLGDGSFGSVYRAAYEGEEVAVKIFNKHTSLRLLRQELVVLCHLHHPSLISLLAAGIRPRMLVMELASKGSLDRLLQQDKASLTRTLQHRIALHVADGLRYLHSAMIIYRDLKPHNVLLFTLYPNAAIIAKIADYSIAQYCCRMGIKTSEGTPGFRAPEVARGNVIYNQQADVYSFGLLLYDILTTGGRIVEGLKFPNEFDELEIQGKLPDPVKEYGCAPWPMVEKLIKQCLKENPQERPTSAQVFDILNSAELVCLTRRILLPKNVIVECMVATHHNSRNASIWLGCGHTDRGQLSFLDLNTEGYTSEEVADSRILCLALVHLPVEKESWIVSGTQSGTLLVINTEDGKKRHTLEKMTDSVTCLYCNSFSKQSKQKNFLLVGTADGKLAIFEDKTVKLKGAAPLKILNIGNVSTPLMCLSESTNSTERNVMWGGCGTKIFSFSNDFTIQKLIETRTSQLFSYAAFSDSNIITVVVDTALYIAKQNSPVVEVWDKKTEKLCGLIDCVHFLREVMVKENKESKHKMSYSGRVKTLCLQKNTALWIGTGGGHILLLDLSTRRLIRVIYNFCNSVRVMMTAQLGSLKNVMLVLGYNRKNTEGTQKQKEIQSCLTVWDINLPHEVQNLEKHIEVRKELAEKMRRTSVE

Structure (SMILES): COc1cc(C(=O)N2CCC(N3CCN(C)CC3)CC2)ccc1Nc1ncc2c(n1)N(C)c1ccccc1C(=O)N2C [LRRK2-IN-1]
- pIC50: 8.28
